Counter-ions that a name gives are not always drawn.
Experiments:
THP-1 cells = test: Measurement of IL-1β production, hTRF protocol (second alternative procedure), THP-1 cells; type: cell-based, human; settings: Homo sapiens, THP-1, IL-1β production, human cells; read-out: NLRP3 hILIB EC50
Outline: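 THP-1 cells differentiated overnight with 50 ng/ml PMA, then plated at 50,000 cells/well in RPMI with 2% FBS onto serial compound dilutions (top final concentration 10 μM) for 2 hours at 37° C. Supernatant IL-1β measured by hTRF (antibodies at 1:40, overnight at 4° C), read at 665/615 nm against a standard curve.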

TLR7 = target: T1, TLR7 (Homo sapiens, UniProt Q9NYK1); test: In vitro human TLR7 binding reporter assay (HEK-Blue, NF-kB/AP1-inducible SEAP); type: cell-based; settings: activity range, read-out: TLR7 Agonist EC50
T1 construct: human HEK-Blue cells co-expressing a TLR7 or TLR8 gene
T1 sequence (Q9NYK1 27-1049): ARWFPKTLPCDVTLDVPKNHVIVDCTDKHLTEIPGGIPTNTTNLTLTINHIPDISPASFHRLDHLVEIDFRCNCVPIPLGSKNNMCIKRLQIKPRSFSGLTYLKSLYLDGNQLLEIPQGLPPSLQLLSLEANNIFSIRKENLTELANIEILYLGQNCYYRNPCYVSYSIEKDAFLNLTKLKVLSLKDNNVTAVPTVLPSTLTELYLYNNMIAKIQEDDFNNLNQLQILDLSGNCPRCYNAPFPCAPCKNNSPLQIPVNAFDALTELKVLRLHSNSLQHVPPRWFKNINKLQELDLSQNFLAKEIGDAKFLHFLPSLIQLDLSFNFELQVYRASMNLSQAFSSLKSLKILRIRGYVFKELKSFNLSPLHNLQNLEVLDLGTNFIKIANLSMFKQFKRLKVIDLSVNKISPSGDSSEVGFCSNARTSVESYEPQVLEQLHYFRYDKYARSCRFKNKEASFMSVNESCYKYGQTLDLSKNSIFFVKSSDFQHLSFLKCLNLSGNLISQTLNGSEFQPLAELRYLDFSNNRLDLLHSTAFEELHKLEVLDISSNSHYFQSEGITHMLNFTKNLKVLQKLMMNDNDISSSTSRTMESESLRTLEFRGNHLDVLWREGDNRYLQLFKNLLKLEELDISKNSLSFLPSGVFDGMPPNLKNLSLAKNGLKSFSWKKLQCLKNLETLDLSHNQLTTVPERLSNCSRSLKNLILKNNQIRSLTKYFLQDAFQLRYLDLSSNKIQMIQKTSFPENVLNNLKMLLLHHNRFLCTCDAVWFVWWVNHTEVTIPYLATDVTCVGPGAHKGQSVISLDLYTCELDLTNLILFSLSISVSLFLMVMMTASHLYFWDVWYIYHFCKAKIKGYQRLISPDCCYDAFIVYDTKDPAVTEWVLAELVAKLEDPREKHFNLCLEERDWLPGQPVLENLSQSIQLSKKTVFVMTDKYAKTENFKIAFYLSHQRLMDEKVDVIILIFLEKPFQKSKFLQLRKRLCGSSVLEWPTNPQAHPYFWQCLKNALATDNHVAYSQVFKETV
Outline: (§1)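 EC50s come from NF-kB/AP1-driven SEAP secretion in HEK-Blue cells expressing TLR7 or TLR8, measured with Quanti-Blue after an 18 h compound incubation. Maximal response is defined by a 50 μM reference standard.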

TLR8 = target: T2, TLR8 (Homo sapiens, UniProt Q9NR97); test: In vitro human TLR8 binding reporter assay (HEK-Blue, NF-kB/AP1-inducible SEAP); type: cell-based; settings: activity range, read-out: TLR8 Agonist EC50
T2 construct: human HEK-Blue cells co-expressing a TLR7 or TLR8 gene
T2 sequence (Q9NR97 27-1041): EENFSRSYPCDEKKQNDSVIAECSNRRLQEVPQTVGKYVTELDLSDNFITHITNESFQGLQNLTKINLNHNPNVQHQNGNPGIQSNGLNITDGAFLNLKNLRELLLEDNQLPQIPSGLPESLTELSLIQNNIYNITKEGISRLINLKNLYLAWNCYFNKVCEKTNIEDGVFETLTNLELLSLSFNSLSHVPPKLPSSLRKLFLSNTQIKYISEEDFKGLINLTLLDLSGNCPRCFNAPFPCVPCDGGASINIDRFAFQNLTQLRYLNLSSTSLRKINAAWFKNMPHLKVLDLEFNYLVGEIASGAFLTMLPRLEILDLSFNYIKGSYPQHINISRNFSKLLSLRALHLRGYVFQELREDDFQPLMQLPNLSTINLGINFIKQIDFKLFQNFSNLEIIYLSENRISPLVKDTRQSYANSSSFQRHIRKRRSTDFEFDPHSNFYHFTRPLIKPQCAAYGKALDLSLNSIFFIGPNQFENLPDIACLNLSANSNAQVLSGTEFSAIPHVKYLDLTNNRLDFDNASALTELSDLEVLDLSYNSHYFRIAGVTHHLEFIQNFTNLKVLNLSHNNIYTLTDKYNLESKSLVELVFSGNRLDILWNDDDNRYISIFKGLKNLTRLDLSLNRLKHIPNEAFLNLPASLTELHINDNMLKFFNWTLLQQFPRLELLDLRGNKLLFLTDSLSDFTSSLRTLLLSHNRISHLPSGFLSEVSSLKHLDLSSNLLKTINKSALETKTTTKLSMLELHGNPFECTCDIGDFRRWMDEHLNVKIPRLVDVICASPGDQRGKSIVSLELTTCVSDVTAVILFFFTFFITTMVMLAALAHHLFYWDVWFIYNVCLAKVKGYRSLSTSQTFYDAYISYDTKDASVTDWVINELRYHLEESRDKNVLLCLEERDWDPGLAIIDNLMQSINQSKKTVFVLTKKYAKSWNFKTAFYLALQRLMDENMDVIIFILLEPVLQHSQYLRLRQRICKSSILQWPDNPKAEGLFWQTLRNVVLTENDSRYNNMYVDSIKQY
Outline: as §1

Row | Compound | EC50 (THP-1 cells) [µM] | EC50 (TLR7) [µM] | EC50 (TLR8) [µM]
1 | CCn1c(CN)cc2c(N)nc3cc(-c4ccn[nH]4)ccc3c21 [Example 441] | 1.33 | > 100 | > 100
2 | CC(=O)NCc1cc2c(N)nc3cc(-n4cccn4)ccc3c2[nH]1 [Example 445] | 0.66 | > 100 | > 100
3 | CCn1c(CNC(C)=O)cc2c(N)nc3cc(-n4cccn4)ccc3c21 [Example 448] | 1.78 | > 100 | > 100
4 | CCn1c(CCCO)cc2c(N)nc3cc(-c4ccn[nH]4)ccc3c21 [Example 449] | 0.7 | > 100 | > 100
5 | CC(C)(O)Cn1cc2c(n1)c(N)nc1cc(-c3ccn[nH]3)ccc12 [Example 450] | 0.53 | > 100 | > 100
6 | CC(O)Cn1cc2c(n1)c(N)nc1cc(-c3ccn[nH]3)ccc12 (stereo not drawn) [Example 451] | 1.26 | > 100 | > 100
7 | CC(C)(O)CCn1cc2c(n1)c(N)nc1cc(-c3ccn[nH]3)ccc12 [Example 452] | 0.4 | > 100 | > 100
8 | CCS(=O)(=O)N[C@@H](C)Cn1cc2c(N)nc3cc(-c4cc[nH]n4)ccc3c2n1 [Example 465] | 1.9 | > 100 | > 100
9 | N#CCC1(Cn2cc3c(N)nc4cc(-c5cc[nH]n5)ccc4c3n2)CC1 [Example 466] | 0.61 | > 100 | > 100
10 | Cc1nc(C(=O)NC(C)(C)Cn2cc3c(N)nc4cc(-c5cc[nH]n5)ccc4c3n2)co1 [Example 467] | 0.94 | > 100 | > 100
11 | Cc1c(CN2CCOCC2)[nH]c2c1c(N)nc1cc(-c3cc[nH]n3)ccc12 [Example 468] | 1.62 | > 100 | > 100
12 | Cc1c(CN[C@H]2CCOC2)[nH]c2c1c(N)nc1cc(-c3cc[nH]n3)ccc12 [Example 469] | 0.84 | > 100 | > 100
13 | CCN(Cc1[nH]c2c(c(N)nc3cc(-c4cc[nH]n4)ccc32)c1C)C(C)=O [Example 470] | 15.3 | > 100 | > 100
14 | Nc1nc2cc(-c3cc[nH]n3)ccc2c2[nH]c(CN3C[C@@H]4C[C@H]3CO4)cc12 [Example 471] | 0.75 | > 100 | > 100
15 | Nc1nc2cc(-c3cc[nH]n3)ccc2c2[nH]c(CN3C[C@H]4CC[C@@H](C3)O4)cc12 [Example 473] | 0.49 | > 100 | > 100
16 | Nc1nc2cc(-c3cc[nH]n3)ccc2c2[nH]c(CN3[C@@H]4CC[C@H]3COC4)cc12 [Example 474] | 0.45 | > 100 | > 100
17 | CC(=O)N[C@H]1CCN(Cc2cc3c(N)nc4cc(-c5cc[nH]n5)ccc4c3[nH]2)C1 [Example 475] | 1.21 | > 100 | > 100

These reach a lower EC50 (THP-1 cells). Values come first.

Row | EC50 (THP-1 cells) [µM] | EC50 (TLR7) [µM] | EC50 (TLR8) [µM] | Compound
18 | 0.38 | > 100 | > 100 | COc1nc(C(=O)NCCc2cc3c(N)nc4cc(-c5ccn[nH]5)ccc4c3[nH]2)cs1 [Example 447]
19 | 0.37 | > 100 | > 100 | CC(CCO)n1cc2c(n1)c(N)nc1cc(-c3ccn[nH]3)ccc12 (stereo not drawn) [Example 454]
20 | 0.32 | > 100 | > 100 | CN(C)Cc1cc2c(N)nc3cc(-c4ccn[nH]4)ccc3c2[nH]1 [Example 439]
21 | 0.31 | > 100 | > 100 | CC(CO)n1cc2c(n1)c(N)nc1cc(-c3ccn[nH]3)ccc12 (stereo not drawn) [Example 453]
22 | 0.27 | > 100 | > 100 | CO[C@@H](CO)Cn1cc2c(n1)c(N)nc1cc(-c3cc[nH]n3)ccc12 [Example 459]
23 | 0.26 | > 100 | > 100 | CCn1c(CN(C)C)cc2c(N)nc3cc(-c4ccn[nH]4)ccc3c21 [Example 444]
24 | 0.25 | > 100 | > 100 | CNC(=O)Cn1cc2c(N)nc3cc(-c4cc[nH]n4)ccc3c2n1 [Example 461]
25 | 0.24 | > 100 | > 100 | N#CC1(Cn2cc3c(N)nc4cc(-c5cc[nH]n5)ccc4c3n2)CC1 [Example 464]
26 | 0.23 | > 100 | > 100 | CC(=O)NCc1cc2c(N)nc3cc(-c4ccn[nH]4)ccc3c2[nH]1 [Example 443]
27 | 0.23 | > 100 | > 100 | COCCn1cc2c(N)nc3cc(-c4ccn[nH]4)ccc3c2c1 [Example 456]
28 | 0.23 | > 100 | > 100 | CO[C@H]1CCN(Cc2cc3c(N)nc4cc(-c5cc[nH]n5)ccc4c3[nH]2)C1 [Example 472]
29 | 0.22 | > 100 | > 100 | Nc1nc2cc(-c3ccn[nH]3)ccc2c2cn(CCO)cc12 [Example 455]
30 | 0.22 | > 100 | > 100 | NC(=O)CCn1cc2c(N)nc3cc(-c4cc[nH]n4)ccc3c2n1 [Example 462]
31 | 0.2 | > 100 | > 100 | Nc1nc2cc(-n3cccn3)ccc2c2[nH]c(CCCO)cc12 [Example 446]
32 | 0.2 | > 100 | > 100 | N#CCCCCn1cc2c(N)nc3cc(-c4cc[nH]n4)ccc3c2n1 [Example 460]
33 | 0.19 | > 100 | > 100 | Nc1nc2cc(-c3ccn[nH]3)ccc2c2[nH]c(CCO)cc12 [Example 442]
34 | 0.16 | > 100 | > 100 | Nc1nc2cc(-c3cc[nH]n3)ccc2c2n[nH]cc12 [Example 457, 7-(1H-pyrazol-3-yl)-2H-pyrazolo[4,3-c]quinolin-4-amine]
35 | 0.16 | > 100 | > 100 | CN(C)C(=O)Cn1cc2c(N)nc3cc(-c4cc[nH]n4)ccc3c2n1 [Example 458, 2-(4-amino-7-(1H-pyrazol-5-yl)-2H-pyrazolo[4,3-c]quinolin-2-yl)-N,N-dimethylacetamide.TFA]
36 | 0.13 | > 100 | > 100 | Nc1nc2cc(-c3ccn[nH]3)ccc2c2[nH]c(CCCO)cc12 [Example 440]
37 | 0.13 | > 100 | > 100 | CS(=O)(=O)CCn1cc2c(N)nc3cc(-c4cc[nH]n4)ccc3c2n1 [Example 463]

— patent publication US12037344B2, “NLRP3 modulators” (INNATE TUMOR IMMUNITY, INC., priority 2018, dated 2024)
